Results published in publication PMC2953536 (Angewandte Chemie (International ed. in English), 2010).

Assays:
MMP-9 = MMP-9 (Homo sapiens, UniProt P14780); assay: Fluorescence-based MMP inhibition assay, MMP-9; assay type: biochemical; conditions: inhibitor, MMP-9, fluorescence based assay, average of two experiments
MMP-12 = MMP-12 (Homo sapiens, UniProt P39900); assay: Fluorescence-based MMP inhibition assay, MMP-12; assay type: biochemical; conditions: MMP-12, fluorescence based assay, average of two experiments
Sequence of MMP-12 (P39900 106-470, species assumed): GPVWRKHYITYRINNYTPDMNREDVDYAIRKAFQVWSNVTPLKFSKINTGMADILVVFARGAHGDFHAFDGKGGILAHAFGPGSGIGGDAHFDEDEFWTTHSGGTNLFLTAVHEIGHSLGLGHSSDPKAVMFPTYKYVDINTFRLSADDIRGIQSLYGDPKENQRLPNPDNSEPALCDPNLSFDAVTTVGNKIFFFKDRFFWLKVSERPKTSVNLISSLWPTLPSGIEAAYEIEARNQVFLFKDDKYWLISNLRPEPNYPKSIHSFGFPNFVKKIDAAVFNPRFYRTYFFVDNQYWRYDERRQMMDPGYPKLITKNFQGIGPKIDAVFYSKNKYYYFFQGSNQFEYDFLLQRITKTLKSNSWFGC

Sequence of MMP-9 (P14780 94-707, species assumed): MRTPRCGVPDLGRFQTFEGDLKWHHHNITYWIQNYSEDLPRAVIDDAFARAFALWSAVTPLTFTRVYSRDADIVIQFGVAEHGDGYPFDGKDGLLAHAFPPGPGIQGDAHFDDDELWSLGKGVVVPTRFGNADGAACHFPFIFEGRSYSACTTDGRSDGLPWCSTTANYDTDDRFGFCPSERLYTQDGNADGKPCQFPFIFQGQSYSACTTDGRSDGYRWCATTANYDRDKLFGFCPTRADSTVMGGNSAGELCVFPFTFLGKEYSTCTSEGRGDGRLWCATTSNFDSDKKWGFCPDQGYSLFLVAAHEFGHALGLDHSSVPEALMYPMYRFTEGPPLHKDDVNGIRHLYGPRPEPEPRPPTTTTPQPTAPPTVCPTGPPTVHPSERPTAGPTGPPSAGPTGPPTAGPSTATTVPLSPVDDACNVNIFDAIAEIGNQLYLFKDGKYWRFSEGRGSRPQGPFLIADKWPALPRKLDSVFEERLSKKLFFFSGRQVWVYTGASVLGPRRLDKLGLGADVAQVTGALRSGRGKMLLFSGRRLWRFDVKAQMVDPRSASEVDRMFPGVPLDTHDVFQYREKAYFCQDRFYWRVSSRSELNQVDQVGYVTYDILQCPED

Structure (SMILES): O=C(NCc1ccc(-c2ccccc2)cc1)c1cccc(=O)n1O [1,2-HOPO-2]
- IC50 (MMP-9): 6.1 µM
- IC50 (MMP-12): 0.053 µM
